Assay results from patent US8895585B2, “Nicotinamide derivative or salt thereof” (FUJIFILM Corporation, priority 2010, dated 2014).
Where “and” joins values, the source holds several entries; their conditions need not be identical. Identical values can stand only once.

Assays:
[1] = biological target: T1, glutathione S-transferase (GST)-fused full-length human Syk protein (Homo sapiens, UniProt P43405); experiment: Syk enzyme assay; assay type: biochemical; settings: Syk enzyme assay, Test Example 1; read-out: IC50 of Syk-inhibitory activity
T1 construct: (GST)-fused full-length human Syk protein; GST (glutathione S-transferase); purchased Carna Biosciences
How it was run: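 IC50 values come from a time-resolved FRET readout (615 and 665 nm) of substrate phosphorylation, measured after an EDTA stop and 1 h antibody binding. The kinase reaction ran 40 min at room temperature with 27 μM ATP and 0.4 μM biotin-peptide, following a 15 min compound preincubation with baculovirus-made GST-full-length human Syk.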

[2] = system: THP-1 cells; experiment: TNFα generation assay; assay type: cell-based, human; settings: Table 22, read-out: IC50 in TNFα generation assay
How it was run: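 THP-1 cells differentiated to macrophage-like cells with 10 ng/ml IFN-γ for 2 days, preincubated with compound 30 min at room temperature, then cultured 7 h on plates coated with human IgG (10 μg/ml). Secreted TNFα measured by ELISA or AlphaLISA.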

[3] = system: THP-1 cells; experiment: Antibody-dependent phagocytosis assay; assay type: cell-based; settings: Homo sapiens; THP-1 cells induced to differentiate with IFNγ; opsonized Escherichia coli; Table 23; read-out: IC50 upon phagocytosis inhibition
Protocol: THP-1 cells (2×10^5 cells/ml) which are human monocyte-like cell line were cultured in the presence of 10 ng/ml IFNγ for 2 days, so that the cells were induced to differentiate into macrophage-like cells. THP-1 cells that had been induced to differentiate were collected. The cells (5×10^4 cells/well) were reacted with test compounds having given concentrations at room temperature for 30 minutes. Thereafter, Escherichia coli (Life Technologies) labeled with a pH-sensitive dye (pHrodo) was subjected to opsonization using an anti-Escherichia coli antibody (Molecular Probes). Then, the resultant was added to THP-1 cells mixed with test compounds that had been induced to differentiate, followed by incubation at 37° C. for 3 hours. At the time of addition of opsonized Escherichia coli, cell-permeable fluorescent dye (Calcein AM) were simultaneously added thereto, and phagocytosis of opsonized Escherichia coli in viable cells was quantitatively determined using an IN Cell Analyzer.
In addition, the following are used in Table 23 to denote standards for evaluating IC50 upon phagocytosis inhibition. • A: Up to 1 μM • B: 1 to 3 μM • C: 3 to 6 μM

[4] = Homo sapiens, THP-1, THP-1 cells

Structure (SMILES) | IC50 [1] | IC50 [2, 4] | IC50 [3] | IC50 ([2]; THP-1 cells)
NC(=O)c1cc(F)c(NC2CCCCC2N)nc1Nc1cncc(-c2ccccc2)c1 (stereo not drawn) [Example 002-001] | < 10 nM | < 65 nM | 1000 to 3000 nM | –
Cc1ncc(Nc2nc(NC3CCCCC3N)c(F)cc2C(N)=O)cc1-n1nccn1 (stereo not drawn) [Example 002-134] | < 10 nM | 65 to 130 nM | 1000 to 3000 nM | –
NC(=O)c1cc(F)c(N[C@@H]2CCCC[C@@H]2N)nc1Nc1cccc2ncccc12 [Example 37-1, 6-((1R,2S)-2-aminocyclohexylamino)-5-fluoro-2-((quinolin-5-yl)amino)nicotinamide] | < 10 nM | < 65 nM | – | –
NC(=O)c1cc(F)c(N[C@@H]2CCCC[C@@H]2N)nc1Nc1cncc2ccccc12 [Example 37-2, 6-((1R,2S)-2-aminocyclohexylamino)-5-fluoro-2-((isoquinolin-4-yl)amino)nicotinamide] | < 10 nM | < 65 nM | – | –
NC(=O)c1cc(F)c(N[C@@H]2CCCC[C@@H]2N)nc1Nc1ccc2ncccc2c1 [Example 37-3, 6-((1R,2S)-2-aminocyclohexylamino)-5-fluoro-2-((quinolin-6-yl)amino)nicotinamide] | < 10 nM | < 65 nM | – | –
NC(=O)c1cc(F)c(N[C@@H]2CCCC[C@@H]2N)nc1Nc1cnc2ccccc2c1 [Example 37-4, 6-((1R,2S)-2-aminocyclohexylamino)-5-fluoro-2-((quinolin-3-yl)amino)nicotinamide] | < 10 nM | < 65 nM | – | –
Cn1ncc2cc(Nc3nc(N[C@@H]4CCCC[C@@H]4N)c(F)cc3C(N)=O)ccc21 [Example 37-5, 6-((1R,2S)-2-aminocyclohexylamino)-5-fluoro-2-((1-methyl-1H-indazol-5-yl)amino)-nicotinamide] | < 10 nM | 65 to 130 nM | – | –
CC[C@H](CN)Nc1nc(Nc2ccc3ncccc3c2)c(C(N)=O)cc1F [Example 39-2, (R)-6-((1-aminobutan-2-yl)amino)-5-fluoro-2-((quinolin-6-yl)amino)nicotinamide] | < 10 nM | < 65 nM | – | –
C[C@H](CN)Nc1nc(Nc2ccc3ncccc3c2)c(C(N)=O)cc1F [Example 39-3, (R)-6-((1-aminopropan-2-yl)amino)-5-fluoro-2-((quinolin-6-yl)amino)nicotinamide] | < 10 nM | < 65 nM | – | –
NC[C@H](Nc1nc(Nc2ccc3ncccc3c2)c(C(N)=O)cc1F)c1ccccc1 [Example 39-4, (R)-6-((2-amino-1-phenylethyl)amino)-5-fluoro-2-((quinolin-6-yl)amino)nicotinamide] | < 10 nM | 65 to 130 nM | – | –

Further lines, results first:

IC50 [1] | IC50 [2, 4] | IC50 [3] | IC50 ([2]; THP-1 cells) | Structure (SMILES)
< 10 nM | < 65 nM | 1000 to 3000 nM | – | NC(=O)c1cc(F)c(N[C@@H]2CCCC[C@@H]2N)nc1Nc1ccnc2[nH]ccc12 (relative stereo) [Example 004-060]
< 10 nM | < 65 nM | 1000 to 3000 nM | – | NC(=O)c1cc(F)c(N[C@@H]2CCCC[C@@H]2N)nc1Nc1cc(F)c2[nH]ccc2c1 (relative stereo) [Example 004-079, 6-(cis-2-aminocyclohexylamino)-5-fluoro-2-((7-fluoro-1H-indol-5-yl)amino)nicotinamide]
< 10 nM | – | < 1000 nM | – | COc1cccc2cc(Nc3nc(N[C@@H]4CCCC[C@@H]4N)c(F)cc3C(N)=O)cnc12 (relative stereo) [Example 004-120, 6-(cis-2-aminocyclohexylamino)-5-fluoro-2-((8-methoxyquinolin-3-yl)amino)nicotinamide]
10 to 50 nM | 65 to 130 nM | 1000 to 3000 nM | – | N#Cc1cc(Nc2nc(N[C@@H]3CCCC[C@@H]3N)c(F)cc2C(N)=O)cnc1N1CCOCC1 (relative stereo) [Example 004-228, 6-((cis-2-aminocyclohexyl)amino)-2-((5-cyano-6-morpholinopyridin-3-yl)amino)-5-fluoronicotinamide]
< 10 nM | < 65 nM | < 1000 nM | – | CC(=O)Nc1cccc2cc(Nc3nc(N[C@@H]4CCCC[C@@H]4N)c(F)cc3C(N)=O)cnc12 [Example 004-008]
< 10 nM | < 65 nM | 1000 to 3000 nM | – | Cn1ccc2c(Nc3nc(N[C@@H]4CCCC[C@@H]4N)c(F)cc3C(N)=O)ccnc21 [Example 004-013]
10 to 50 nM | – | 3000 to 6000 nM | 65 to 130 nM | Cc1ccc(Nc2nc(N[C@@H]3CCCC[C@@H]3N)c(F)cc2C(N)=O)cn1 [Example 004-017]
< 10 nM | 130 to 200 nM | 1000 to 3000 nM | – | COc1cncc(Nc2nc(N[C@@H]3CCCC[C@@H]3N)c(F)cc2C(N)=O)c1 [Example 004-031]
< 10 nM | 65 to 130 nM | 1000 to 3000 nM | – | NC(=O)c1cc(F)c(N[C@@H]2CCCC[C@@H]2N)nc1Nc1cncc(-n2nccn2)c1 [Example 004-042]
< 10 nM | < 65 nM | < 1000 nM | – | COc1cc(Nc2nc(NC[C@H](C)N)c(F)cc2C(N)=O)cc(OC)n1 [Example 006-098, (S)-6-((2-aminopropyl)amino)-2-((2,6-dimethoxypyridin-4-yl)amino)-5-fluoronicotinamide]
< 10 nM | 65 to 130 nM | < 1000 nM | – | COCCOc1cc(Nc2nc(N[C@@H](CN)CC(C)C)c(F)cc2C(N)=O)ccn1 [Example 006-157, (R)-6-((1-amino-4-methylpentan-2-yl)amino)-5-fluoro-2-((2-(2-methoxyethoxy)pyridin-4-yl)amino)nicotinamide]
10 to 50 nM | 65 to 130 nM | 1000 to 3000 nM | – | NC(=O)c1cc(F)c(N[C@@H]2CCCC[C@@H]2N)nc1Nc1ccc(N2CCOCC2)nc1 [Example 006-165, 6-(((1R,2S)-2-aminocyclohexyl)amino)-5-fluoro-2-((6-morpholinopyridin-3-yl)amino)nicotinamide]
< 10 nM | – | 3000 to 6000 nM | – | NC(=O)c1cc(F)c(NC2CCCCC2N)nc1Nc1cccc(C(F)(F)F)c1 (stereo not drawn) [Example 008-007]
10 to 50 nM | 130 to 200 nM | – | – | NC(=O)c1cc(F)c(NC2CCCCC2N)nc1Nc1cncc(NC(=O)c2cccc(F)c2F)c1 (stereo not drawn) [Example 027-030]
< 10 nM | 130 to 200 nM | – | – | NC(=O)c1cc(F)c(NC2CCCCC2N)nc1Nc1cncc(NC(=O)c2ccco2)c1 (stereo not drawn) [Example 027-033]
– | – | 3000 to 6000 nM | – | NC(=O)c1cc(Nc2nc(NC3CCCC[C@@H]3N)c(F)cc2C(N)=O)ccn1 (stereo partly drawn) [Example 029-012]
< 10 nM | 65 to 130 nM | – | – | NC(=O)c1cc(Cl)c(NC2CCCCC2N)nc1Nc1cnc2ccccc2c1 (stereo not drawn) [Example 035-001]
< 10 nM | 65 to 130 nM | – | – | NC(=O)c1cc(Br)c(NC2CCCCC2N)nc1Nc1cnc2ccccc2c1 (stereo not drawn) [Example 035-002]
< 10 nM | 130 to 200 nM | – | – | Cc1cccc(Nc2nc(NC3CCCCC3N)c(Cl)cc2C(N)=O)c1 (stereo not drawn) [Example 035-005]
< 10 nM | 65 to 130 nM | – | – | Cc1cncc(Nc2nc(NC3CCCCC3N)c(Br)cc2C(N)=O)c1 (stereo not drawn) [Example 035-007]
< 10 nM and 10 to 50 nM | 130 to 200 nM | – | – | Cc1cc(C)cc(Nc2nc(NCCN)c(Br)cc2C(N)=O)c1 [Example 035-009]
< 10 nM | – | – | 65 to 130 nM | NC(=O)c1cc(F)c(N[C@@H]2CCCC[C@@H]2N)nc1Nc1cncc(-c2cccc(N)c2)c1 [Example 043-000]
10 to 50 nM | 65 to 130 nM | – | – | Cc1cc(Nc2nc(N[C@H](CCCO)[C@H](C)N)c(F)cc2C(N)=O)cnc1C [Example 044-000]
